Key:
[1] = Kinetics of NO release from the retention balloon (headspace chemiluminescence); format: physicochemical; conditions: balloon filled with ascorbic acid/nitrite solution; NO-free air flush 4.5 L/min
Source text: The kinetics of NO release from the retention balloon was monitored in separate experiments. The catheter was placed in the flask and after filling the retention balloon with the ascorbic acid/nitrite solution the flask was closed. Synthetic NO-free air was flushed via an inlet at a rate of 4.5 L/min and headspace NO was continuously measured from an outlet by a rapid-response chemiluminescence system (Aerocrine AB, Stockholm, Sweden).

[2] = tested on: E. coli isolated from a patient with urinary tract infection and E. coli ATCC 25992; assay: Viable counts of E. coli in urine surrounding the filled retention balloon; format: cell-based; conditions: solution in retention balloon, start 10^5 cfu/ml, 37° C.
[3] = tested on: E. coli; assay: Comparative experiment with traditional antibiotic in retention balloon or directly in urine
Experimental: An overnight culture was added to 25 ml of urine to a final density of 10^5 CFU/ml. The urine was placed in long-necked 50 ml flasks with a shape resembling the urinary bladder and the urethra. An all-silicone catheter (Argyle, Sherwood Medical, Tullamore, Ireland) was placed in the flask and the retention balloon was filled with 10 ml of saline containing ascorbic acid (10 mM) and sodium nitrite (5 mM). The pH of the solution was adjusted to 2.5 using hydrochloric acid (3 M). Ascorbic acid and nitrite were prepared and mixed immediately before administration. Ascorbic acid solution alone (pH 2.5) was used as control. After filling the retention balloons the catheter was gently pulled outwards and fixed at the neck whereby the flask opening was sealed off. Then the flasks were turned up side down and incubated at 37° C. for 24 h. At the end of the experiment the urine was serially diluted and further cultured on blood agar plates for determination of viable counts (cfu/ml). All experiments were made in quadruplicate.
In a separate flask ciprofloxacin was added directly to the urine.

For `[N]=O` [NO, nitric oxide], the “half-time of decrease of NO release rate from the balloons” value [1] was “about 30 min”.
With `O=C1O[C@H]([C@@H](O)CO)C(O)=C1O` [ascorbic acid alone, ascorbic acid] the “bacterial counts after 24 h” value [2] was 10^8 cfu/ml.
In the case of `O=C(O)c1cn(C2CC2)c2cc(N3CCNCC3)c(F)cc2c1=O` [ciprofloxacin], the “antibacterial effect in urine” value ([3]; antibiotic added directly to the urine) is reported as “effectively killed the bacteria” and the “antibacterial effect in the urine surrounding the balloon” value ([3]; antibiotic placed in the retention balloon) is reported as “no antibacterial effect”.
